Experimental data from publication PMC8763243, “Synthesis of Novel Suramin Analogs With Anti-Proliferative Activity via FGF1 and FGFRD2 Blockade” (Frontiers in Chemistry, 2022).
“And” between values parts separate entries of the source, which are not always exact repeats. Equal values may be shown once.

What was measured:
FGF1 = target: T1, FGF1 (Homo sapiens, UniProt P05230); assay: Fluorescence spectroscopy binding constant of FGF1 and suramin derivatives; conditions: fluorescence quenching, 5 µM FGF1, non-linear regression with Stern–Volmer equation, pH 6.5
T1 construct: made in house
T1 sequence (P05230 whole entry): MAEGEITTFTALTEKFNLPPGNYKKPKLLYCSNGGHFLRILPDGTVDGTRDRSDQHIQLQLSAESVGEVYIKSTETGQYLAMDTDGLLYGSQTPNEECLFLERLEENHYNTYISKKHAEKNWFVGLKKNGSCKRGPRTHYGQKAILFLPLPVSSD
Experimental: The binding constant Kd was calculated for FGF1 and the five derivatives in a buffer containing 10% D2O, 50 mM AMS, 20 mM phosphate buffer, and 50 mM NaCl at pH 6.5 using an F-2500 Hitachi fluorescence spectrophotometer.
[…] has tremendous significance for biochemical application because it provides valuable knowledge about the probability of quencher activity. The anti-mitogenic activity of the five compounds was achieved by the same mechanism in which suramin inhibits the mitogenic activity of FGF1. A non-linear regression curve was plotted for the relative intensities of activity versus drug concentration using the Stern–Volmer equation (Eq. 1). log(F0−F)/F=logK+nlog[Q], (1)
where F0 represents the fluorescence intensity in the absence of the compounds, and F represents the fluorescence intensity in the presence of the [Q] concentration of the compounds.
Increasing concentrations of these five suramin derivatives were added to a solution containing 5 µM FGF1. A reduction in the fluorescence intensity was reported for all five suramin derivatives. The Stern–Volmer equation was used to calculate the binding constant between FGF1 and compounds 14, 15, 17, 18, and 21 for relative intensities versus the total concentration in a non-linear regression curve.

MCF-7 cells [1] = assay: WST-1 assay, FGF1-stimulated cell proliferation; type: cell-based, human; conditions: serum-starved MCF-7, 100 nM FGF1, 100 nM, 500 nM and 1 µM of test substance, 48 h
Experimental: (§1) The water-soluble tetrazolium salt (WST-1) assay was performed to assess the effects of the compounds on cell proliferation and cytotoxicity. DMEM/F12 containing 10% FBS was used for the cell culture, and incubation was performed in 5% CO2 till the logarithmic growth phase was achieved. On the day before the experiment, the cells were trypsinized and seeded in a 96-well plate at a density of 5000 cells/well. For the FGF1-stimulated cell proliferation assay, the cells were then incubated for 24 h in a serum-free medium containing 0.1% bovine serum albumin (BSA). Serum-starved cells with or without a specified concentration of suramin, 14, 15, 17, 18, 21, and FGFRD2 were stimulated with 100 nM of FGF1 again for 48 h. For the purpose of the cytotoxicity assay, the cells were treated with an increased concentration of suramin and compounds 14, 17, 15, 18, and 21 (Figure 6) for 48 h. Also, 1/10 of the volume of WST-1 cell reagent was inserted in every well and maintained at 37°C for another 4 h before harvesting. There was gentle agitation of the medium in the cell culture plate for 10 min using a shaker. A Synergy 2 microplate reader (BioTek Instruments, Inc., VT, United States) was used to measure the absorbance at 450 nm. The relative absorbance was compared with the control treatment to determine the relative cell number.
Cell proliferation was measured using the WST-1 assay. […]

MCF-7 cells [2] = assay: WST-1 assay, cytotoxicity in tumorigenic cells; type: cell-based, human; conditions: for Mean (Blank 450) / Fold (mean) / Blank 450 / Fold: S8; for Fold (mean): relative to control; for Blank 450: single replicate absorbance; for Fold: single replicate relative to control; for cytotoxicity compared with suramin: MCF-7 cells, 1-100 µM, 48 h, especially at concentrations higher than 10 µM
Experimental: as §1
(§2) […] […] The reason for the higher cytotoxicity was the presence of methyl groups on the suramin structure ([Martello et al., 2001]).
(§3) Suramin-induced neuropathy may depend on the effects on calcium (Ca^2+) homeostasis as a potential pathological mechanism, and the full or partial positive charge of the element when directly attached to the ring at each of the sulphonic groups (HSO3). These interactions exert a moderate to strong electron-withdrawing inductive effect, which may be responsible for the observed suramin cytotoxicity ([Prasetyaningrum et al., 2018]; [Von Der Ahe et al., 2018]). The cytotoxicity of the synthesized analogs was lower as there were methyl groups and no sulfonic acid groups attached to the suramin backbone. The IC50 values of the synthesized compounds in MCF-7 breast cancer cells were analyzed using SigmaPlot software.

[3] = WST-1 assay, cytotoxicity in tumorigenic cells; type: cell-based, human; conditions: human; MCF-7 cells, 48 h, SigmaPlot; read-out: estimated IC50 (cytotoxicity)
Experimental: as §1, §2, §3

[4] = WST-1 assay, cytotoxicity in normal breast epithelial cell line (non-tumorigenic); type: cell-based; conditions: human; non-tumorigenic MCF-10A cells; read-out: estimated IC50 (cytotoxicity)
Experimental: as §1
In order to gain some insight about the selectivity of the compounds between tumorigenic and non-tumorigenic cells, the cytotoxicity was also being evaluated against normal breast cell lines by examining the cytotoxicity of suramin and its derivatives, compounds 15, 18, and 21, in a normal breast epithelial cell line (non-tumorigenic), MCF-10A. […] Compared to their cytotoxicity in tumorigenic MCF-7 cells (Figure 6), the estimated IC50 values in MCF-10A were higher than those in MCF-7 cells. […] However, the estimated IC50 value of suramin and its derivatives in both non-tumorigenic MCF-10A and tumorigenic MCF-7 cells were over 100 μM. The effective concentrations of suramin and its derivatives to attenuate FGF1-stimulated cell proliferation in MCF-7 cells were around 1 μM (Figure 5), which is non-toxic concentration to both MCF-7 cells and MCF-10A cells. […] Therefore, in addition to the specificity of each drug, the selectivity of suramin and its derivatives to disrupt the FGF1/FGFR-mediated breast cancer growth might rely on the overexpression or amplification of FGFR2 in breast cancer cells, but not in normal cells, and the secreted FGF1 ligand by autocrine or paracrine effects from cancer cells or their surrounding stroma cells or adipocytes (tumor microenvironment). The statistical data for the cytotoxicity are shown in Supplementary Figure S8.

SMILES	Kd (FGF1) [µM]	effect on FGF1-stimulated cell proliferation (MCF-7 cells [1])	Mean (Blank 450) (MCF-7 cells [2]; 1 uM)	Fold (mean) (MCF-7 cells [2]; 1 uM)	Blank 450 (MCF-7 cells [2]; 1 uM)	Fold (MCF-7 cells [2]; 1 uM)	Mean (Blank 450) (MCF-7 cells [2]; 5 uM)	Fold (mean) (MCF-7 cells [2]; 5 uM)	Blank 450 (MCF-7 cells [2]; 5 uM)	Fold (MCF-7 cells [2]; 5 uM)	Mean (Blank 450) (MCF-7 cells [2]; 10 uM)	Fold (mean) (MCF-7 cells [2]; 10 uM)	Blank 450 (MCF-7 cells [2]; 10 uM)	Fold (MCF-7 cells [2]; 10 uM)	Mean (Blank 450) (MCF-7 cells [2]; 100 uM)	Fold (mean) (MCF-7 cells [2]; 100 uM)	Blank 450 (MCF-7 cells [2]; 100 uM)	Fold (MCF-7 cells [2]; 100 uM)	cytotoxicity compared with suramin (MCF-7 cells [2])	IC50 at 48 h [3] [µM]	other results
O=C(Nc1ccc(C(=O)Nc2cccc3cc(S(=O)(=O)O)ccc23)cc1)Nc1ccc(C(=O)Nc2cccc3cc(S(=O)(=O)O)ccc23)cc1 [Compound 14, Sodium 5,5'-((4,4'-(carbonylbis (azanediyl))bis (benzoyl))bis (azanediyl)) bis (naphthalene-2-sulfonate)]	13.7	more potent inhibitory effects	0.231	1.03	0.248 and 0.227 and 0.205 and 0.242	1.113 and 1.019 and 0.920 and 1.086	0.225	1.01	0.219 and 0.241 and 0.23 and 0.208	0.983 and 1.082 and 1.033 and 0.934	0.211	0.95	0.206 and 0.193 and 0.225 and 0.218	0.925 and 0.866 and 1.010 and 0.979	0.198	0.89	0.209 and 0.195 and 0.181 and 0.208	0.938 and 0.875 and 0.813 and 0.934	less toxic	> 100	Mean (Blank 450) (MCF-7 cells [2]; 0.5 uM): 0.233; Fold (mean) (MCF-7 cells [2]; 0.5 uM): 1.04; Blank 450 (MCF-7 cells [2]; 0.5 uM): 0.228 and 0.253 and 0.244 and 0.205; Fold (MCF-7 cells [2]; 0.5 uM): 1.024 and 1.136 and 1.095 and 0.920
O=C(Nc1ccc(C(=O)Nc2ccc(C(=O)Nc3cccc4cc(S(=O)(=O)O)ccc34)cc2)cc1)Nc1ccc(C(=O)Nc2ccc(C(=O)Nc3cccc4cc(S(=O)(=O)O)ccc34)cc2)cc1 [Compound 17, Sodium 5,5'-((4,4'-((4,4'-(carbonylbis (azanediyl))bis (benzoyl))bis (azanediyl))bis (benzoyl))bis(azanediyl)) bis (naphthalene-2-sulfonate)]	10.1	more potent inhibitory effects	0.226	1.01	0.235 and 0.232 and 0.211 and 0.225	1.055 and 1.042 and 0.947 and 1.010	0.222	1.00	0.201 and 0.215 and 0.233 and 0.239	0.902 and 0.965 and 1.046 and 1.073	0.220	0.99	0.218 and 0.227 and 0.225 and 0.209	0.979 and 1.019 and 1.010 and 0.938	0.208	0.93	0.197 and 0.209 and 0.218 and 0.206	0.884 and 0.938 and 0.979 and 0.925	less toxic	> 100	Mean (Blank 450) (MCF-7 cells [2]; 0.5 uM): 0.233; Fold (mean) (MCF-7 cells [2]; 0.5 uM): 1.04; Blank 450 (MCF-7 cells [2]; 0.5 uM): 0.241 and 0.231 and 0.216 and 0.243; Fold (MCF-7 cells [2]; 0.5 uM): 1.082 and 1.037 and 0.970 and 1.091
O=C(Nc1ccc(C(=O)Nc2cc(S(=O)(=O)O)cc3cc(S(=O)(=O)O)cc(S(=O)(=O)O)c23)s1)Nc1ccc(C(=O)Nc2cc(S(=O)(=O)O)cc3cc(S(=O)(=O)O)cc(S(=O)(=O)O)c23)s1 [Compound 21, Sodium 8,8'-((5,5'-(carbonylbis (azanediyl))bis (thiophene-5,2-diyl-2-carbonyl))bis (azanediyl)) bis (naphthalene-1,3,6-trisulfonate)]	15.9		1.167	1.00	1.107 and 1.215 and 1.169 and 1.177	0.950 and 1.043 and 1.003 and 1.010	1.178	1.01	1.145 and 1.151 and 1.183 and 1.233	0.983 and 0.988 and 1.015 and 1.058	1.163	1.00	1.136 and 1.167 and 1.187 and 1.163	0.975 and 1.002 and 1.019 and 0.998	1.021	0.88	1.046 and 1.075 and 0.916	0.898 and 0.923 and 0.786	less toxic	> 100	IC50 at 48 h [4]: 628 ± 1.45 µM; Mean (Blank 450) (MCF-7 cells [2]; 50 uM): 1.124; Fold (mean) (MCF-7 cells [2]; 50 uM): 0.96; Blank 450 (MCF-7 cells [2]; 50 uM): 1.137 and 1.128 and 1.113 and 1.119; Fold (MCF-7 cells [2]; 50 uM): 0.976 and 0.968 and 0.955 and 0.960
Cc1ccc(C(=O)Nc2ccc(S(=O)(=O)O)c3cc(S(=O)(=O)O)cc(S(=O)(=O)O)c23)cc1NC(=O)c1cccc(NC(=O)Nc2cccc(C(=O)Nc3cc(C(=O)Nc4ccc(S(=O)(=O)O)c5cc(S(=O)(=O)O)cc(S(=O)(=O)O)c45)ccc3C)c2)c1 [suramin]			1.211	1.04	1.289 and 1.186 and 1.173 and 1.197	1.106 and 1.018 and 1.007 and 1.027	1.160	1.00	1.137 and 1.217 and 1.147 and 1.138	0.976 and 1.044 and 0.984 and 0.977	1.116	0.96	1.187 and 1.064 and 1.159 and 1.052	1.019 and 0.913 and 0.995 and 0.903	0.817	0.70	0.795 and 0.82 and 0.838 and 0.816	0.682 and 0.704 and 0.719 and 0.700	highest among all the analogs	> 100	IC50 at 48 h [4]: 222 ± 2.4 µM; Mean (Blank 450) (MCF-7 cells [2]; 50 uM): 1.004; Fold (mean) (MCF-7 cells [2]; 50 uM): 0.86; Blank 450 (MCF-7 cells [2]; 50 uM): 0.936 and 0.988 and 1.088 and 1.004; Fold (MCF-7 cells [2]; 50 uM): 0.803 and 0.848 and 0.934 and 0.862
